Assay results from ChEMBL document CHEMBL4507327 (2021).
pIC50: −log10 of the molar value.

What was measured:
[1] = biological target: Neuropeptide Y receptor type 1 (Homo sapiens) (UniProt P25929); assay: Inhibition of Neuropeptide Y Y1 at 10 µM in the Eurofins-Panlabs radioligand binding assay (Eurofins_assay_257010); details: Compound concentration 10.0 uM
[2] = biological target: T1, Alpha-1A adrenergic receptor (Homo sapiens) (UniProt P35348); assay: Inhibition of Adrenergic alpha1A at compound concentration of 10.0 uM in the Eurofins-Panlabs radioligand binding assay (Eurofins_assay_203110); set-up: ligand concentration 0.25 nM; details: Rattus norvegicus; Compound concentration 10.0 uM
T1 sequence (whole entry): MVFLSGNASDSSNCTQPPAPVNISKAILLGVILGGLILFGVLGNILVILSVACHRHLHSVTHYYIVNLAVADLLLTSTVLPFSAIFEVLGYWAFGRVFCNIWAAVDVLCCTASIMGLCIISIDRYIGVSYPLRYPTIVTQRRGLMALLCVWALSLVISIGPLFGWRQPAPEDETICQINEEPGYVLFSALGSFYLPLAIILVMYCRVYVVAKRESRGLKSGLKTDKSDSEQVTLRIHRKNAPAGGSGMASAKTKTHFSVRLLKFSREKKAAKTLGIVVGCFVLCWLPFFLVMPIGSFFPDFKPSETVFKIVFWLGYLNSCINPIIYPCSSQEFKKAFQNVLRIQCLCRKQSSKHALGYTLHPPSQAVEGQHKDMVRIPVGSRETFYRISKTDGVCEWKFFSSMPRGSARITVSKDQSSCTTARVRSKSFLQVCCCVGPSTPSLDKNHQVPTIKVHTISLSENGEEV

[3] = biological target: Alpha-1B adrenergic receptor (Homo sapiens) (UniProt P35368); assay: Adrenergic alpha1B Eurofins-Panlabs radioligand binding assay; set-up: ligand concentration 0.2 nM; details: Compound concentration 10.0 uM
Activin receptor type-1 = Activin receptor type-1 (Homo sapiens, UniProt Q04771); assay: ALK2(ACV1LGF1) Takeda global kinase panel
[4] = biological target: RAC-beta serine/threonine-protein kinase (Homo sapiens, UniProt P31751); assay: Akt2 [PKBbeta(AKT2CGY1)] Takeda global kinase panel
[5] = biological target: ALK tyrosine kinase receptor (Homo sapiens, UniProt Q9UM73); assay: ALK(ALK1LGY1) Takeda global kinase panel
[6] = biological target: Tyrosine-protein kinase BTK (Homo sapiens, UniProt Q06187); assay: BTK(BTK1CGF1) Takeda global kinase panel
[7] = biological target: Cyclin-dependent kinase 6 (Homo sapiens, UniProt Q00534); assay: CDK6(CDK6CGS1) Takeda global kinase panel
[8] = biological target: Dual specificity protein kinase CLK3 (Homo sapiens, UniProt P49761); assay: CLK3(CLK3LGY1) Takeda global kinase panel
[9] = biological target: Tyrosine-protein kinase CSK (Homo sapiens, UniProt P41240); assay: CSK(CSK1LGF1) Takeda global kinase panel
Chain of Tyrosine-protein kinase CSK (P41240 whole entry): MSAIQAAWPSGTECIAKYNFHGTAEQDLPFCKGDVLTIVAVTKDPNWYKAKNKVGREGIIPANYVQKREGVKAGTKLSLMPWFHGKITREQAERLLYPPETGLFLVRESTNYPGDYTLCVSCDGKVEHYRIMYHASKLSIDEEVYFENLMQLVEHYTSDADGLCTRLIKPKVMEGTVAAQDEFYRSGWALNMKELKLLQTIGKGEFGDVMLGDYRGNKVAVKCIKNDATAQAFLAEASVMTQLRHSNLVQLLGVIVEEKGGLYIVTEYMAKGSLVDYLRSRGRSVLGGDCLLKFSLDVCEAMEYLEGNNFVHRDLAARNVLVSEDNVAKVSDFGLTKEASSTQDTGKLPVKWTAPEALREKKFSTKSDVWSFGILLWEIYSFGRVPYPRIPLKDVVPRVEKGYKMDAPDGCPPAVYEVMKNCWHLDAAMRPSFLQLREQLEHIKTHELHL

[10] = biological target: Death-associated protein kinase 3 (Homo sapiens, UniProt O43293); assay: DAPK3(DAP3LGP1) Takeda global kinase panel
Chain of Death-associated protein kinase 3 (O43293 whole entry): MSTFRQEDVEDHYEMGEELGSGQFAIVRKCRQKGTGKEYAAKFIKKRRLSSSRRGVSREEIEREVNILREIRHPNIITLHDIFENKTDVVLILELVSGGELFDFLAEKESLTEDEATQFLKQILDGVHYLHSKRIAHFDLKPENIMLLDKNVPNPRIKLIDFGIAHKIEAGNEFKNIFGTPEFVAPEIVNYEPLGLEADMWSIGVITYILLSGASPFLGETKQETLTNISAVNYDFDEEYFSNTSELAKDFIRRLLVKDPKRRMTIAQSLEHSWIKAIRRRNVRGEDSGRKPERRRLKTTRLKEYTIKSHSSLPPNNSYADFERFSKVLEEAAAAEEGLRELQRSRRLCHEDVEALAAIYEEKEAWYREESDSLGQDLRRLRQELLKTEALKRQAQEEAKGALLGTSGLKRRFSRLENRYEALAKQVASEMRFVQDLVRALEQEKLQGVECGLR

[11] = biological target: Epidermal growth factor receptor (Homo sapiens, UniProt P00533); assay: EGFR(EGFRMGB1) Takeda global kinase panel
[12] = biological target: Serine/threonine-protein kinase/endoribonuclease IRE1 (Homo sapiens, UniProt O75460); assay: IRE1(ERN1PHY1) Takeda global kinase panel
Insulin receptor = Insulin receptor (Homo sapiens, UniProt P06213); assay: InSR(INSRLGY1) Takeda global kinase panel
[13] = biological target: Insulin receptor-related protein (Homo sapiens, UniProt P14616); assay: IRR(INSSLGF1) Takeda global kinase panel
[14] = biological target: Serine/threonine-protein kinase LATS2 (Homo sapiens, UniProt Q9NRM7); assay: LATS2(LAT2LGY1) Takeda global kinase panel
[15] = biological target: Tyrosine-protein kinase Lck (Homo sapiens, UniProt P06239); assay: Lck(LCK1LGF1) Takeda global kinase panel
[16] = biological target: Mitogen-activated protein kinase kinase kinase 11 (Homo sapiens, UniProt Q16584); assay: MLK3(M311LGF1) Takeda global kinase panel
Chain of Mitogen-activated protein kinase kinase kinase 11 (Q16584 whole entry): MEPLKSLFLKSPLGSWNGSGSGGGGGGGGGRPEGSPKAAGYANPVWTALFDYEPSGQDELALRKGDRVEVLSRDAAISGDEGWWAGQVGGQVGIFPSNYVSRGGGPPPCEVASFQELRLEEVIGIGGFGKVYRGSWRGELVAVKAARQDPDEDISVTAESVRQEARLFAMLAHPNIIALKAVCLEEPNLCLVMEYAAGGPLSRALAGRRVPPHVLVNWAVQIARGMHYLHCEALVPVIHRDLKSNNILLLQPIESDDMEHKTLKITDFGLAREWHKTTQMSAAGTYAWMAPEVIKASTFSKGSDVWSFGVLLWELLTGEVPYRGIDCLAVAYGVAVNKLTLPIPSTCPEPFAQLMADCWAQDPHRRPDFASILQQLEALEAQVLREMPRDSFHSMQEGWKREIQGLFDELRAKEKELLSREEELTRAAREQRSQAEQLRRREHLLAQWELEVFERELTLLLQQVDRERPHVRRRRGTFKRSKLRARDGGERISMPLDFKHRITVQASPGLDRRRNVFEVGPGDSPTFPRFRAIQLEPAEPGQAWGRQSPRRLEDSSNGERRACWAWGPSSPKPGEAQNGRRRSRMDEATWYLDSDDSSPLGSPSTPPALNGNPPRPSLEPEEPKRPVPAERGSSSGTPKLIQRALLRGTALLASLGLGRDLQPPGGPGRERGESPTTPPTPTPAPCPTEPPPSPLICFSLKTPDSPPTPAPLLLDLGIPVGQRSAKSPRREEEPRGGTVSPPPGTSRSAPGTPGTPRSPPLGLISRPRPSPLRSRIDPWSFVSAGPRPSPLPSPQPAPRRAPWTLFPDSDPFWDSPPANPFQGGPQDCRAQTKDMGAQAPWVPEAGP

[17] = biological target: Mitogen-activated protein kinase kinase kinase 7 (Homo sapiens, UniProt O43318); assay: TAK1(M3K7CHY1) Takeda global kinase panel
[18] = biological target: Mitogen-activated protein kinase 12 (Homo sapiens, UniProt P53778); assay: p38gamma(MP12LGP1) Takeda global kinase panel
[19] = biological target: Microtubule-associated serine/threonine-protein kinase 4 (Homo sapiens, UniProt O15021); assay: MAST4(MAS4LGRD) Takeda global kinase panel
Chain of Microtubule-associated serine/threonine-protein kinase 4 (O15021 whole entry): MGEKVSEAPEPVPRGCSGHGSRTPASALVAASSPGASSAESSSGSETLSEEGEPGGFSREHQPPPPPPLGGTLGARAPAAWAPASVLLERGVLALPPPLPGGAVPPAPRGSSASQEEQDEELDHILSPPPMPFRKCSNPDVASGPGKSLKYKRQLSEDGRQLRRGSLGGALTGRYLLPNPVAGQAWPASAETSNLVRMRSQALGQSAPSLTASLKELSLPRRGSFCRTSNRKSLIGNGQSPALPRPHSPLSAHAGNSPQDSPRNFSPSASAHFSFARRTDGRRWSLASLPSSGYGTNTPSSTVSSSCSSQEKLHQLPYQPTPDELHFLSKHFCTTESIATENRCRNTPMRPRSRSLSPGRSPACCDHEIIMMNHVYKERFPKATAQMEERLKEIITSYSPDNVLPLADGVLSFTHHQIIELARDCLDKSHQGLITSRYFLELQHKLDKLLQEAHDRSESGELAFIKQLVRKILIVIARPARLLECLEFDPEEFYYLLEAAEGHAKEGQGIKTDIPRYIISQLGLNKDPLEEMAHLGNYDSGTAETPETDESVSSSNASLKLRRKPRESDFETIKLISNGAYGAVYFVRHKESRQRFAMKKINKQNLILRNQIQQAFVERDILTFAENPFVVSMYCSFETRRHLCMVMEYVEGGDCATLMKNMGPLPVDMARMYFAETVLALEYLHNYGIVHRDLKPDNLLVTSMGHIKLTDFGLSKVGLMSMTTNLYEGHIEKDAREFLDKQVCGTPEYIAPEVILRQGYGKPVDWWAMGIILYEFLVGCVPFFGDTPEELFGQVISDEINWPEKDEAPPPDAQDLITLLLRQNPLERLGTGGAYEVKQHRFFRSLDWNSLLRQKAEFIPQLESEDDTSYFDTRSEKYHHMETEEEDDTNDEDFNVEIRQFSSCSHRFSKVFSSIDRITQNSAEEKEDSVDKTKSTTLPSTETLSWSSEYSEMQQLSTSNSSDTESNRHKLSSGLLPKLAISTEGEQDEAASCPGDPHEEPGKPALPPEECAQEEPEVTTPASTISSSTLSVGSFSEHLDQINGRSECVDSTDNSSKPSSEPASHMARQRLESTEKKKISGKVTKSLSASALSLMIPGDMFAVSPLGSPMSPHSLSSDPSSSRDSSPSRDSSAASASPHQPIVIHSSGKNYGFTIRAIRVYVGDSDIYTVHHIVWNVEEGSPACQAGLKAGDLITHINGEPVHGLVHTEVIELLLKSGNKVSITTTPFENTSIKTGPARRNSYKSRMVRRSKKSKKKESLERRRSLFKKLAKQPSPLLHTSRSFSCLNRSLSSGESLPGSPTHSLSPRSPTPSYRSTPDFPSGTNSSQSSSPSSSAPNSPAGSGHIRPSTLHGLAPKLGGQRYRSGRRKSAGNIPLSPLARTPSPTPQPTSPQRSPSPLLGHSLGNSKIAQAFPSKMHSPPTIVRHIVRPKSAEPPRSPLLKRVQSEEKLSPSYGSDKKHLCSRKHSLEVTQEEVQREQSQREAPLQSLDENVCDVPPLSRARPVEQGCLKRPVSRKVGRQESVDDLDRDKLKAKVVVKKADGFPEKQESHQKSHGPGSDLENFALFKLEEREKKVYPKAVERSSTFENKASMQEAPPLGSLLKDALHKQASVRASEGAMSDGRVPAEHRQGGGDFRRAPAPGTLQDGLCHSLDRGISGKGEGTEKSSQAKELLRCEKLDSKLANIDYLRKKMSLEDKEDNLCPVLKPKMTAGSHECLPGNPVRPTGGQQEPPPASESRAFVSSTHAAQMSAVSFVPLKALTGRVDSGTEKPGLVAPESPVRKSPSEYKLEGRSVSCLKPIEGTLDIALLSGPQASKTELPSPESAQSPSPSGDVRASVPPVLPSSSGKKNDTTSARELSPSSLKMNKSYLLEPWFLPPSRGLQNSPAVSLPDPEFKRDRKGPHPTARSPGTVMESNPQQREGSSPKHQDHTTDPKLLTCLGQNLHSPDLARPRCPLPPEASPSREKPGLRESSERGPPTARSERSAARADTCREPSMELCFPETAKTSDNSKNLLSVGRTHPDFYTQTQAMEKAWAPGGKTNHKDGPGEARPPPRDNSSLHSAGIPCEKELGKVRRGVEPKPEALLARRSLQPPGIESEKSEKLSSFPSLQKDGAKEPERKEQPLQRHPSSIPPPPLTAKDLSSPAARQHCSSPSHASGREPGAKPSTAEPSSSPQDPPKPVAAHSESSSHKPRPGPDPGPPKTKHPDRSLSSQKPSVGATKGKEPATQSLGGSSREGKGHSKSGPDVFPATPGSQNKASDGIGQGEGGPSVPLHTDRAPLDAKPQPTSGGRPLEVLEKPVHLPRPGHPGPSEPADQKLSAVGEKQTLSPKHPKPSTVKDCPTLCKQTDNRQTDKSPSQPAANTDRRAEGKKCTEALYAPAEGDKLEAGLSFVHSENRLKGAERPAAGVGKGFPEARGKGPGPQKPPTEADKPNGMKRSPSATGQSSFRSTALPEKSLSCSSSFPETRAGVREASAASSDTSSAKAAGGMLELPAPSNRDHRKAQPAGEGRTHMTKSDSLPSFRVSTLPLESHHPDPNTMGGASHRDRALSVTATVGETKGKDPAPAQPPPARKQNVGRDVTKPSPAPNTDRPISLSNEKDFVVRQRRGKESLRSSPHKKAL

[20] = biological target: Protein-tyrosine kinase 2-beta (Homo sapiens, UniProt Q14289); assay: PYK2(PT2BLHF1) Takeda global kinase panel
[21] = biological target: Receptor-interacting serine/threonine-protein kinase 3 (Homo sapiens, UniProt Q9Y572); assay: RIPK3(RIP3IGRI) Takeda global kinase panel
Chain of Receptor-interacting serine/threonine-protein kinase 3 (Q9Y572 whole entry): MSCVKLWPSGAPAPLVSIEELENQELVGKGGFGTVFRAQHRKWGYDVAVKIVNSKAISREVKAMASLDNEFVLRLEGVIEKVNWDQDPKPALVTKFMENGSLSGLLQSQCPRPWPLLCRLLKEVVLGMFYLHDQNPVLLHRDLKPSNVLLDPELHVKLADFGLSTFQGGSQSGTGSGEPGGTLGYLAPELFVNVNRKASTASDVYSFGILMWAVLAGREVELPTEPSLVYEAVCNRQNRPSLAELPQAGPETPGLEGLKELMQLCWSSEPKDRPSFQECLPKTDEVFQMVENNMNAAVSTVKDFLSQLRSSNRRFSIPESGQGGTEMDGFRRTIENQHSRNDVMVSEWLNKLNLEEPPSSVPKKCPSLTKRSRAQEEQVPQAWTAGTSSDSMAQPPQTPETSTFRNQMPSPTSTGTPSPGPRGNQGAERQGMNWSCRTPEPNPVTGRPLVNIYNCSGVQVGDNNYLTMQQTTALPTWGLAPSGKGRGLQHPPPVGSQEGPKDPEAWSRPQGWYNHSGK

[22] = biological target: Ribosomal protein S6 kinase alpha-2 (Homo sapiens, UniProt Q15349); assay: RSK3(R6A1CGE1) Takeda global kinase panel
[23] = biological target: Ribosomal protein S6 kinase alpha-4 (Homo sapiens, UniProt O75676); assay: MSK2(R6A4LGRJ) Takeda global kinase panel
[24] = biological target: Serine/threonine-protein kinase Sgk3 (Homo sapiens, UniProt Q96BR1); assay: SGK3(SGK3LGY1) Takeda global kinase panel
[25] = biological target: Serine/threonine-protein kinase SIK3 (Homo sapiens, UniProt Q9Y2K2); assay: QSK(SIK3LGP1) Takeda global kinase panel
[26] = biological target: STE20-like serine/threonine-protein kinase (Homo sapiens, UniProt Q9H2G2); assay: SLK(SLK1LGRJ) Takeda global kinase panel
[27] = biological target: Serine/threonine-protein kinase 32B (Homo sapiens, UniProt Q9NY57); assay: YANK2(S32BLGY2) Takeda global kinase panel
[28] = biological target: Tyrosine-protein kinase SYK (Homo sapiens, UniProt P43405); assay: Syk(SYK1LHY1) Takeda global kinase panel
[29] = biological target: Serine/threonine-protein kinase TAO3 (Homo sapiens, UniProt Q9H2K8); assay: TAO3(TAO3LGY1) Takeda global kinase panel
[30] = biological target: TRAF2 and NCK-interacting protein kinase (Homo sapiens, UniProt Q9UKE5); assay: TNIK [ZC2(TNIKLGF1)] Takeda global kinase panel
[31] = biological target: Myosin light chain kinase family member 4 (Homo sapiens, UniProt Q86YV6); assay: SgK085(SG85LGY1) Takeda global kinase panel
[32] = biological target: Muscarinic acetylcholine receptor M4 (Homo sapiens) (UniProt P08173); details: Compound concentration 10.0 uM
[33] = biological target: Glutamate receptor ionotropic, kainate (Rattus norvegicus) (UniProt P22756+Q01812+P42260+P42264+Q63273); details: Compound concentration 10.0 uM
[34] = biological target: cAMP-dependent protein kinase catalytic subunit gamma (Homo sapiens, UniProt P22612); assay: PKAgamma(PRCGLGY1) Takeda global kinase panel
[35] = biological target: Mitogen-activated protein kinase 7 (Homo sapiens, UniProt Q13164); assay: ERK5(MAP7LGF1) Takeda global kinase panel
[36] = biological target: Proto-oncogene tyrosine-protein kinase Src (Homo sapiens, UniProt P12931); assay: Src(SRC1LGF5) Takeda global kinase panel

Row | Structure (SMILES) | inhibition [1] [%] | inhibition [2] [%] | inhibition [3] [%] | pIC50 (Activin receptor type-1) | pIC50 [4] | pIC50 [5] | pIC50 [6] | pIC50 [7] | pIC50 [8] | pIC50 [9] | pIC50 [10] | pIC50 [11] | pIC50 [12] | pIC50 (Insulin receptor) | pIC50 [13] | pIC50 [14] | pIC50 [15] | pIC50 [16] | pIC50 [17] | pIC50 [18] | other results
1 | CN1C(=O)[C@@H](N2CCc3cn(Cc4ccccc4)nc3C2=O)COc2ccccc21 [TP-030-1] | 4 | -1 | 2 | 6.00 | 6.00 | 6.00 | 6.00 | 6.00 | 6.00 | 6.00 | 6.00 | 6.00 | 6.00 | 6.00 | 6.00 | 6.00 | 6.00 | 6.00 | 6.00 | 6.00 | pIC50 [19]: 6.00; pIC50 [20]: 6.00; pIC50 [21]: 6.00; pIC50 [22]: 6.00; pIC50 [23]: 6.00; pIC50 [24]: 6.00; pIC50 [25]: 6.00; pIC50 [26]: 6.00; pIC50 [27]: 6.00; pIC50 [28]: 6.00; pIC50 [29]: 6.00; pIC50 [30]: 6.00; pIC50 [31]: 6.00; inhibition [32]: 8.56%; inhibition [33]: -2%
2 | CN1C(=O)[C@@H](N2CCc3cn(CC4CCS(=O)(=O)CC4)nc3C2=O)COc2ccccc21 [TP-030n] | -3 | 1 | 1 | 6.00 | 6.00 | 6.00 | 6.00 | 6.00 | 6.00 | 6.00 | 6.00 | 6.00 | 6.00 | 6.00 | 6.00 | 6.00 | 6.00 | 6.00 | 6.00 | 6.00 | pIC50 [19]: 6.00; pIC50 [20]: 6.00; pIC50 [21]: 6.00; pIC50 [22]: 6.00; pIC50 [23]: 6.00; pIC50 [24]: 6.00; pIC50 [25]: 6.00; pIC50 [26]: 6.00; pIC50 [27]: 6.00; pIC50 [28]: 6.00; pIC50 [29]: 6.00; pIC50 [30]: 6.00; pIC50 [31]: 6.00; pIC50 [34]: 6.00; pIC50 [35]: 6.00; pIC50 [36]: 6.00; inhibition [33]: 7%
